PubChem BioAssay AID608 (Sanford-Burnham Center for Chemical Genomics, 2007)
Activity calls are given as the source filed them. The rule behind the calls is not given here.

These compounds were tested against Peptidyl-prolyl cis-trans isomerase FKBP1A (Homo sapiens) (UniProt P62942) (assay: small-molecule binding to FKBP12 – biophysical, NMR detection (AID 608)). Conditions: purified FKBP12.
Chain of Peptidyl-prolyl cis-trans isomerase FKBP1A (Homo sapiens) (P62942 whole entry, looked up): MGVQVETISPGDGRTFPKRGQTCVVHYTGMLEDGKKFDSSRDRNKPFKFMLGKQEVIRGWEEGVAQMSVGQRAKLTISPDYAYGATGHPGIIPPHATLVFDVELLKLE

SMILES	Kd
CC(=O)NCC1OCCc2ccccc21 (configuration not stated)	> 4 mM (inactive)
O=C(O)c1cc(O)c2c(c1)[C@@H]([C@H]1c3cc(C(=O)O)cc(O)c3C(=O)c3c(O[C@H]4O[C@H](CO)[C@@H](O)[C@H](O)[C@H]4O)cccc31)c1cccc(O[C@H]3O[C@H](CO)[C@@H](O)[C@H](O)[C@H]3O)c1C2=O	> 4 mM (inactive)
Cc1c(CO)cnn1-c1ccc(F)cc1	> 4 mM (inactive)
CC(=O)NS(=O)(=O)c1ccc(C)cc1	> 4 mM (inactive)
COC(=O)c1ccc2nccnc2c1	> 4 mM (inactive)
NC(=O)c1c[nH]c2ccccc12	> 4 mM (inactive)
O=C(O)/C=C/c1ccc(O)c(O)c1	> 4 mM (inactive)
Nc1nnc(SCc2ccc(F)cc2Cl)s1	> 4 mM (inactive)
O=C(O)CC1C(=O)NCCN1Cc1cccs1 (configuration not stated)	> 4 mM (inactive)
O=C(Nc1nnc(-c2ccncc2)o1)c1cccs1	> 4 mM (inactive)
CC(=O)Nc1ccc2c(c1)CCC2=O	> 4 mM (inactive)
CN(C)C(=O)Oc1ccc(-c2nnco2)cc1	> 4 mM (inactive)
O=c1/c(=C\c2cccnc2)sc2nc3ccccc3n12	> 4 mM (inactive)
O=C(Nc1ccc(N2CCOCC2)cc1)c1cnsn1	> 4 mM (inactive)
CC(=O)OC1CCC23CC1(C)CCC2C(C)(C)CC3OC(C)=O (configuration not stated)	> 4 mM (inactive)
CC(=O)C1=C(O)C(=O)NC1c1ccccc1 (configuration not stated)	> 4 mM (inactive)
Cn1cnc2ccc([N+](=O)[O-])cc2c1=O	> 4 mM (inactive)
CS(=O)(=O)Nc1ccc(C(=O)N2CCCCC2)cc1	> 4 mM (inactive)
COc1c2ccoc2nc2c(OC)c(OCC(O)C(C)(C)O)ccc12 (configuration not stated)	> 4 mM (inactive)
CC(C)(O)P(C)(=O)c1ccccc1 (configuration not stated)	> 4 mM (inactive)
CCOC(=O)c1c(C)nc2cc(C)ccn12	> 4 mM (inactive)
NC(=O)CN1CCCCCC1=O	> 4 mM (inactive)
CSc1ccc(C2NC(=O)CCC2[N+](=O)[O-])cc1 (configuration not stated)	> 4 mM (inactive)
COC(=O)c1c[nH]c2ccccc12	> 4 mM (inactive)

SMILES	Kd
CCOC(=O)C1CN(C)CCN1C (configuration not stated)	> 4 mM (inactive)
O=C(Nn1cnnc1)c1ccccc1Cl	> 4 mM (inactive)
CC1=CC(=O)NC2C=CC=CC12 (configuration not stated)	> 4 mM (inactive)
S=C(NCc1cccnc1)NC1CC1	> 4 mM (inactive)
Nc1cccc2c(=O)[nH][nH]c(=O)c12	> 4 mM (inactive)
COc1cccc(S(=O)(=O)Nc2cccnc2)c1	> 4 mM (inactive)
Cc1nnc(NCCN2CCOCC2)[nH]c1=O	> 4 mM (inactive)
O=Cc1c(N2CCOCC2)nc2ccccn2c1=O	> 4 mM (inactive)
CCCCCC(=O)Cc1cc(O)cc(O)c1C(=O)Oc1cc(CC(=O)CCCCC)c(C(=O)O)c(OC)c1	> 4 mM (inactive)
NC(=O)c1ccccc1NC(=O)C1CCCO1 (configuration not stated)	> 4 mM (inactive)
Cn1c(-c2ccccc2F)n[nH]c1=S	> 4 mM (inactive)
Cc1scc(C(=O)Nn2cnnc2)c1-c1ccccc1	> 4 mM (inactive)
CC(C)(C)c1cc(N)n[nH]1	> 4 mM (inactive)
CC1(C)C2CC[C@]3(C)C(C(=O)C=C4[C@H]5C[C@@](C)(C(=O)O)CC[C@]5(C)CC[C@]43C)[C@@]2(C)CC[C@@H]1O (some centres not stated)	> 4 mM (inactive)
COc1ccc(C(C)=O)c(OC)c1	> 4 mM (inactive)
Nc1ccnc(C(=O)O)c1	> 4 mM (inactive)
Cc1ccccc1-n1c(N)cc(=O)[nH]c1=S	> 4 mM (inactive)
O=c1cc(-c2ccc(O)cc2)oc2cc(O[C@@H]3O[C@H](CO)[C@@H](O)[C@H](O)[C@H]3O[C@@H]3OC[C@](O)(CO)[C@H]3O)cc(O)c12	> 4 mM (inactive)
COc1ccc2c(c1)CCCN2C(N)=O	> 4 mM (inactive)
CCOC(=O)Cn1cnc2c1c(=O)[nH]c(=O)n2C	> 4 mM (inactive)
CC(C)(CO)NC(=O)c1ccccc1F	> 4 mM (inactive)
CC(=O)Nc1ccc(NC(C)=O)cc1	> 4 mM (inactive)
O=c1c(O)c(-c2ccc(O)c(O)c2)oc2cc(O)ccc12	> 4 mM (inactive)
CCN=Cc1c(O)n(-c2ccccc2C)c(=O)[nH]c1=O	> 4 mM (inactive)

SMILES	Kd
O=C(OC[C@H]1O[C@H](OC(=O)c2cc(O)c(O)c(OC(=O)c3cc(O)c(O)c(O)c3)c2)[C@H](OC(=O)c2cc(O)c(O)c(OC(=O)c3cc(O)c(O)c(O)c3)c2)[C@@H](OC(=O)c2cc(O)c(O)c(OC(=O)c3cc(O)c(O)c(O)c3)c2)[C@@H]1OC(=O)c1cc(O)c(O)c(OC(=O)c2cc(O)c(O)c(O)c2)c1)c1cc(O)c(O)c(OC(=O)c2cc(O)c(O)c(O)c2)c1	> 4 mM (inactive)
Cc1ccc(C(=O)N2CCC(C(N)=O)CC2)c(Cl)c1	> 4 mM (inactive)
Nc1nc(N)nc(N2C(=O)c3ccccc3C2=O)n1	> 4 mM (inactive)
NCC(=O)c1ccccc1	> 4 mM (inactive)
Cc1occc(=O)c1O	> 4 mM (inactive)
O=c1nc(N2CCOCC2)nc2n1CCO2	> 4 mM (inactive)
Nc1ccc2ncsc2c1	> 4 mM (inactive)
NC(=S)N1CCC(c2ccccc2)=N1	> 4 mM (inactive)
NC(=O)C1CCN(C(=S)Nc2ccccc2)CC1	> 4 mM (inactive)
Cc1nc(N)sc1C(=O)N/N=C/c1ccncc1	> 4 mM (inactive)
O=C1C=C(O)c2ccccc2C1=O	> 4 mM (inactive)
O=C(c1ccccc1)c1ccc(N2CCNCC2)cc1	> 4 mM (inactive)
CC(=O)Nn1c(=O)[nH]c2ccccc2c1=O	> 4 mM (inactive)
CC(=O)N1C(=S)NC(=O)/C1=C\c1cccnc1	> 4 mM (inactive)
CNCc1ccccc1	> 4 mM (inactive)
Cn1[nH]c2nc3[nH]n(C)c(=O)c3c(-c3ccccc3)c2c1=O	> 4 mM (inactive)
O=C(Cn1cnc2ccccc2c1=O)N1CCOCC1	> 4 mM (inactive)
NCc1ccc(-c2ccccn2)s1	> 4 mM (inactive)
C[C@]12CCC3C(CC[C@H]4C[C@@H](O)CC[C@]34C)C1CCC2=O (some centres not stated)	> 4 mM (inactive)
COC(=O)c1noc(-c2ccc(OC)cc2)n1	> 4 mM (inactive)
COc1ccccc1NC(=O)NC(N)=O	> 4 mM (inactive)
Cc1noc(C)c1CSc1nc2ccccc2[nH]1	0.157 mM
C(=C\c1ccccc1)/C=N/n1cnnc1	> 4 mM (inactive)
O=C1C2C3CCC(O3)C2C(=O)N1c1cccc(F)c1 (configuration not stated)	> 4 mM (inactive)

SMILES	Kd
COc1cc(C(C)=O)cc(OC)c1O	> 4 mM (inactive)
CCc1ccccc1OCc1nnc(N)s1	> 4 mM (inactive)
C/C(=C\CO)CC[C@H](C)CCC[C@H](C)CCCC(C)C	> 4 mM (inactive)
O=C1CSC(=Nc2ccc(F)cc2)N1	> 4 mM (inactive)
c1ccc(Cc2nnc3sc(-c4ccccn4)nn23)cc1	> 4 mM (inactive)
O=C(c1ccccc1)N1CCN(c2ccccc2F)CC1	> 4 mM (inactive)
CC(C)c1ccc(SCC(=O)N2CCOCC2C(=O)O)cc1 (configuration not stated)	0.426 mM
CC(=O)c1c(C)nn(CC(=O)O)c1C	> 4 mM (inactive)
O=C(O)CN(CCCc1ccccc1)CC(=O)O	> 4 mM (inactive)
CC(=O)O[C@H]1C[C@@H](OC(C)=O)C(C)(C)C2CC(=O)[C@]3(C)C(CC[C@@]4(C)[C@H](c5ccoc5)OC(=O)[C@H]5O[C@]543)[C@]21C (some centres not stated)	> 4 mM (inactive)
O=P1(O)c2ccccc2Nc2ccccc21	> 4 mM (inactive)
Cc1cc(C)cc(NS(=O)(=O)N2CCCCC2)c1	inactive
CCN1C(=O)N(CO)C2C1N(C)C(=O)N2C (configuration not stated)	> 4 mM (inactive)
CC(C)CNc1cc(=O)n(C)c(=O)n1C	> 4 mM (inactive)
CCOC(=O)c1cnn2ccccc12	> 4 mM (inactive)
O=C(O)c1snnc1-c1ccccc1	> 4 mM (inactive)
C/C=C(\C)C(=O)O[C@@H]1c2c(ccc3ccc(=O)oc23)OC(C)(C)[C@@H]1OC(C)=O	> 4 mM (inactive)
O=C(C1CCC(C(=O)N2CCCC2)CC1)N1CCCC1 (configuration not stated)	> 4 mM (inactive)
O=S(=O)(Nc1ccc(F)cc1)N1CCCCC1	inactive
CC[C@@]1(O)C(=O)OCc2c1cc1n(c2=O)Cc2cc3ccccc3nc2-1	> 4 mM (inactive)
CC(=O)Oc1ccc(/C=C/c2cc(OC(C)=O)cc(OC(C)=O)c2)cc1	> 4 mM (inactive)
O=C(COc1ccccc1)N1CCc2ccccc2C1	> 4 mM (inactive)
CCCCCCCCCCCCCCC(C(=O)O)C(O)(CC(=O)OC)C(=O)O (configuration not stated)	> 4 mM (inactive)
CNC(=S)Nc1cccc(C(=O)O)c1	> 4 mM (inactive)

SMILES	Kd
Cc1cc(=O)[nH]c(NCC(=O)O)n1	> 4 mM (inactive)
CC(C)n1c(Nn2cnnc2)nc2ccccc21	> 4 mM (inactive)
Cc1nc2ccccc2c2c1C(=O)N(N)C2=O	> 4 mM (inactive)
c1csc(-c2nn[nH]n2)c1	> 4 mM (inactive)
N#CCN1C(=O)c2ccccc2S1(=O)=O	> 4 mM (inactive)
NC(Cn1ccc(=O)c(O)c1)C(=O)O (configuration not stated)	> 4 mM (inactive)
CC(O)C(=O)N/N=C/c1ccccc1 (configuration not stated)	> 4 mM (inactive)
O=C1CC(=O)N(c2ccccc2F)C(=S)N1	> 4 mM (inactive)
Nc1nnc(SCc2ccc3c(c2)OCO3)s1	> 4 mM (inactive)
O=C(c1cnsn1)N1CCN(c2ccccn2)CC1	> 4 mM (inactive)
Cc1cc(C)n(CC(=O)NC2CCCCC2)n1	> 4 mM (inactive)
Cn1cc(Cl)c(C(=O)NC2CCCCCC2)n1	> 4 mM (inactive)
Nn1c(CN2CCCCC2)nc2ccccc2c1=O	> 4 mM (inactive)
Nc1cccc2nsnc12	> 4 mM (inactive)
COc1ccc2c(c1)OCC(Cc1ccc(OC)c(OC(C)=O)c1)C2=O (configuration not stated)	> 4 mM (inactive)
Oc1ccc(-n2cncn2)cc1	> 4 mM (inactive)
NC(=O)CCS(=O)(=O)CCN1CCOCC1	> 4 mM (inactive)
Cc1cc(=O)c2ccccc2n1CC(N)=O	> 4 mM (inactive)
Cc1nc(-c2ccccc2)ncc1CO	> 4 mM (inactive)
O=C(O)c1ccc2c(c1)OCCO2	> 4 mM (inactive)
CCCCCCCCCCCC[C@H](C(=O)O)[C@@H](C)C(=O)O	> 4 mM (inactive)
